Entries after “also recorded” stand apart in the source; their conditions may differ. Read-outs that look alike come from different tables or passages of the source.

In data set [1] the target is human CK-1δ protein kinase (Homo sapiens, UniProt P48730). Briefly: Inhibition of human CK-1δ protein kinase (Kinase-Glo). Type of data set: biochemical. To be noted: data not shown, read-out: inhibitory activity against human CK-1δ protein kinase. As to the method:
Inhibition of human CK-1δ protein kinase assay: Test compound (10 µL), CK-1δ enzyme (10 µL), and buffer solution (20 µL) were added to each well of a 96-well plate containing 0.1% casein as substrate and 4 µM ATP. The assay buffer solution constituents were 50 mM HEPES at pH 7.5, 0.01% Brij-35, […], 1 mM EDTA, and 0.01% NaN3. The final concentrations of DMSO were limited to 1%. After 60 min of incubation at 30 °C, the reaction was stopped by the addition of 40 µL of Kinase-Glo®. The luminescence was measured after 10 min using a Fluostar Optima multimode reader (BMG Labtechnologies GmbH, Offenburg, Germany). First, LASSBio-1920 was tested at concentrations of 10 µM, and 5 µM of SB415826, a potent CK-1δ enzyme inhibitor, was employed as a positive control.
(In general: Kinase-Glo measures the ATP left after a reaction by luminescence.)

Data set [2] deals with SF-295, glioblastoma. Briefly: MTT cytotoxicity assay, SF-295. To be noted: Homo sapiens, SF-295, 72 h, read-out: IC50 (95% CI) SF-295. For orientation: Formazan colour is commonly taken as a measure of viable cells.
Description: (§3) The cytotoxicity of the compounds was determined using the MTT assay [13]. Cells were seeded in 96-well plates as follows: 0.7 × 10^5 cells/well for adherent cancer cells, 0.3 × 10^5 cells/well for suspended cancer cells, and 0.2 × 10^5 cells/well for HPBMCs. […] The control group was treated with the vehicle. […] After incubation, the supernatant was decanted and replaced with fresh medium containing MTT (0.5 mg/mL).
The test system of data set [3] is HPBMC, human peripheral blood mononuclear cells. The experiment in a line: MTT cytotoxicity assay, HPBMC. As to conditions: PBMC, 72 h incubation, read-out: IC50 (95% CI) HPBMC. It is filed as cell-based. As to the method: Heparinized blood was collected from healthy, non-smoking donors who had not taken any drugs during the 15 days prior to sampling. Human peripheral blood mononuclear cells (HPBMC) were isolated by a standard density-gradient centrifugation method over Ficoll-Hypaque® media (Merck-Sigma-Aldrich, St. Louis, MO, USA). HPBMC were washed and resuspended in RPMI-1640 medium supplemented with 20% fetal bovine serum, 2 mM glutamine, 100 U/mL penicillin, and 100 µg/mL streptomycin at 37 °C with 5% CO2. Phytohemagglutinin (3%) was added at the beginning of the culture.
The cytotoxicity of the compounds was determined using the MTT assay. Cells were seeded in 96-well plates as follows: 0.7 × 10^5 cells/well for adherent cancer cells, 0.3 × 10^5 cells/well for suspended cancer cells, and 0.2 × 10^5 cells/well for HPBMCs. The treatments were dissolved in DMSO and added to each well using an automated liquid handler for high-throughput screening (Biomek 3000—Beckman Coulter, Inc., Fullerton, CA, USA) and incubated for either 24, 48, and 72 h. The control group was treated with the vehicle. […] After incubation, the supernatant was decanted and replaced with fresh medium containing MTT (0.5 mg/mL). Three hours later, the MTT’s formazan product was dissolved in 150 µL of pure DMSO, and absorbance was measured at 595 nm (DTX 880 Multimode Detector, Beckman Coulter, Inc., Pasadena, CA, USA).
Data were presented as mean ± standard error of the mean (SEM) from three independent experiments performed in triplicate, calculated using Prism 8.0 (GraphPad/Intuitive Software for Science, San Diego, CA, USA). The IC50 of the compounds was obtained using a non-linear regression of the cytotoxicity curves.

In data set [4] the test system is PC-3, prostate adenocarcinoma. The experiment in a line: MTT cytotoxicity assay, PC-3. As to conditions: Homo sapiens, 72 h, read-out: IC50 (95% CI) PC-3.
Description: as §3
Data set [5] concerns HCT-116 cells. The experiment in a line: Annexin V/7-AAD apoptosis assay by flow cytometry, HCT-116. Type of data set: cell-based, human. As to conditions: 6 µM, 48 h, negative control 5.14 ± 0.61%. As to the method:
(§1) The control group received the same amount of vehicle, of which the concentration was kept constant (below 0.5%). Cell treatments were completed in triplicate. CA4 (0.2 or 0.5 µM) was used as the positive control. Stock solutions of the compounds tested were dissolved in DMSO and diluted in the culture medium to obtain the desired concentrations.
(§2) Apoptosis assay: Apoptosis was analyzed using Annexin V/7-AAD staining followed by flow cytometry. Cells were collected and stained using an Annexin V-PE/7-AAD apoptosis detection kit. Annexin V binds to phosphatidylserine (PS) in apoptosis cells as PS translocates from the inner to the outer leaflet of the cytoplasmic membrane. 7-AAD is a fluorescent intercalator of DNA impermeable to the cell, providing a reliable indication of membrane integrity. Double staining distinguishes between viable, early apoptotic, necrotic, and late apoptotic cells. The resulting fluorescence of annexin V-PE at 583 nm and 7-AAD at 680 nm of every sample was analyzed by flow cytometry. The 7-AAD-positive and annexin V-negative cells were considered necrotic. Annexin V-positive cells (7-AAD-positive and 7-AAD-negative cells) were classified as apoptotic. 7-AAD-negative and annexin V-negative cells were deemed viable.
(Flow cytometry measures light scatter and fluorescence of single cells or particles in a stream.)

Data set [6] concerns PC-9, lung adenocarcinoma (overexpressed EGFR with L858R mutation). The experiment in a line: MTT cytotoxicity assay, PC-9. As to conditions: for IC50: Homo sapiens.
Description: as §3
The subject of data set [7] is H-1975, non-small cell lung adenocarcinoma. Briefly: MTT cytotoxicity assay, H-1975. As to conditions: Homo sapiens, NCI-H1975, 72 h, read-out: IC50 (95% CI) H-1975.
Description: as §3
Data set [8] has as its system PC-9 cells. Briefly: Annexin V/7-AAD apoptosis assay by flow cytometry, PC-9. It is filed as cell-based, human. To be noted: 0.75 µM, 48 h, negative control 2.40 ± 0.17%. As to the method: as §1, §2
Data set [9] is described as follows: In vitro plasma stability. It is filed as in vitro ADME. To be noted: rat plasma, 37 °C, 100 μM. As to the method:
The in vitro stability of the test compounds was studied in rat plasma. Blood from different Wistar rats was centrifuged with heparin at 20 °C for 15 min at 2000 rpm to separate the plasma, which was diluted to 80% with 0.05 M phosphate-buffered saline (PBS, pH 7.4) at 37 °C [23]. The test compounds were added to 200 µL of preheated plasma solution to yield a final concentration of 100 μM. The final concentration of DMSO in the incubation mixture was 0.5%. The assays were performed with agitation in a water bath at 37 °C and conducted in triplicate. Samples were taken at 0, 30, 60, and 240 min. After each sampling time, 500 µL of cold methanol was added to the mixture immediately, followed by 500 µL of cold acetonitrile. The samples were mixed and centrifuged at room temperature for 15 min at 13,000 rpm. The supernatant was analyzed by HPLC (acetonitrile/water, 7:3, with 0.1% trifluoroacetic acid) using an internal standard (4-acetylbiphenyl—final concentration of 20 µM).

For data set [10], the system named is human tumor cell lines (HCT-116, SF-295, PC-3, H-1975, PC-9, N-87). Briefly: MTT cytotoxicity assay, panel of human tumor cell lines. To be noted: 72 h, read-out: IC50 values against all tumor cell lines.
Description: as §3
The nature of data set [11]: Chemical stability in buffer (HPLC). As to conditions: 0–240 min. Type of data set: physicochemical.

Sequence of human CK-1δ protein kinase (P48730 whole entry): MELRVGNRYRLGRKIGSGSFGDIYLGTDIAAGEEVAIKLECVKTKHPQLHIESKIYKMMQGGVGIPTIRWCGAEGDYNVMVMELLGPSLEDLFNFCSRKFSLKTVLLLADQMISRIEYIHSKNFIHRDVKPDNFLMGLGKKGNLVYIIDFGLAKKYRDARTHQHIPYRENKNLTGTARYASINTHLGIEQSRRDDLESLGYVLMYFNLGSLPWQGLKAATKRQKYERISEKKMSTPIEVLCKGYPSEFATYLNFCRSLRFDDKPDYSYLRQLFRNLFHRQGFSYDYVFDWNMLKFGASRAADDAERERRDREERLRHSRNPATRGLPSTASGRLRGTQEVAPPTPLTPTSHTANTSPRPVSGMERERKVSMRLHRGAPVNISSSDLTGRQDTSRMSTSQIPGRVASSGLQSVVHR

Take `COc1cc(C(=O)N/N=C/c2cc3ccccc3s2)cc(OC)c1OC` [LASSBio-1920, (E)-N′-(Benzo[b]thiophen-2-ylmethylene)-3,4,5-trimethoxybenzohydrazide]: the inhibition at 10 µM in data set [1] was under 10%. Further, the IC50 (in general, the concentration needed to halve the response being measured) came to 0.11 µM in data set [2]; 0.14 µM in data set [3]; 1.68 µM in data set [4]; 78.8 µM in [6] (24 h, read-out: IC50 (95% CI) PC-9 24 h); 1.01 µM in data set [6] (48 h, read-out: IC50 (95% CI) PC-9 48 h); 0.07 µM in [6] (72 h, read-out: IC50 (95% CI) PC-9 72 h). Also, the half-inhibitory concentration (IC50) in data set [7] is 0.21 µM; in data set [10], 0.06 to 1.68 µM. For the same compound, in [5], the “apoptotic HCT-116 cells” value is on record as 12.62 ± 2.26%. The “SI HPBMC/PC-9” value in [6] (IC50 for HPBMC/IC50 for the tumor cell line, 72 h) came to 2. Also, the “apoptotic events PC-9 cells” value in data set [8] worked out at 15.49 ± 1.28%. The plasma stability result in data set [9] is “stable at all time points of the assay; also recorded: not metabolized by plasma esterases, exhibiting substantial stability; also recorded: has plasma stability”. In addition, the “chemical stability at pH 2” value in [11] (HCl buffer pH 2, 37 °C) was “unstable at pH 2; also recorded: unstable in an acid medium (HCl buffer, pH 2)”. The “chemical stability at pH 7.4” value in data set [11] (phosphate buffer pH 7.4, 37 °C) is recorded as “stable at pH 7.4 at all time points; also recorded: stable in a practically neutral medium (phosphate buffer, pH 7.4)”.

The values are drawn from article PMC10144566, “Pharmacokinetic Profile Evaluation of Novel Combretastatin Derivative, LASSBio-1920, as a Promising Colorectal Anticancer Agent” (Pharmaceutics, 2023).
